Results from patent US20090264383A1, “Inhibitor of Adenylyl Cyclase for Treating a Disorder of the Circadian Rhythm” (Medical Research Council, priority 2006, published 2009).
pEC50: −log10 of the molar value. “Also recorded” adds a separate entry of the source.

Experiments:
[1] = biological target: T1, inositol polyphosphate 1-phosphatase (Homo sapiens, UniProt P49441); details: cited from earlier work
T1 sequence (P49441 1-399): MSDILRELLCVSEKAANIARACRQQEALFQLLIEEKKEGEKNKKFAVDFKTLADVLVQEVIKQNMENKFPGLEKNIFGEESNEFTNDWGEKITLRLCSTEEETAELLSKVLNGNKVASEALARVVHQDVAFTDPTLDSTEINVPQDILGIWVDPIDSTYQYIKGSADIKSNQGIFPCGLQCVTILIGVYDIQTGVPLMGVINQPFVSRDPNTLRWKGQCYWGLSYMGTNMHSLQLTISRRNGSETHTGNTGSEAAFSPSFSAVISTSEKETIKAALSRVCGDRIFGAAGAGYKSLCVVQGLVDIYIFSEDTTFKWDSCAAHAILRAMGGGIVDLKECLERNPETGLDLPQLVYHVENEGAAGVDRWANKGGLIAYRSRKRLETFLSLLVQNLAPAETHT

[2] = biological target: T2, inositol monophosphatase (Homo sapiens, UniProt P29218); details: cited from earlier work
T2 sequence (P29218 1-277): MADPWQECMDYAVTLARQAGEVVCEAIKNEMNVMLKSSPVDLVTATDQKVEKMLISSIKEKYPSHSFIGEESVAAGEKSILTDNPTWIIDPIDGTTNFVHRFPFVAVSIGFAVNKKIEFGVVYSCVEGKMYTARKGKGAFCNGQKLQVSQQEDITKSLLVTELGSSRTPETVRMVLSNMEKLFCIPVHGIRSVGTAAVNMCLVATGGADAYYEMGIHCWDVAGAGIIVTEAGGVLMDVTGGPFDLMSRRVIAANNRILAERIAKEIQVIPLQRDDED

[3] = biological target: T3, bisphosphate nucleotidase (Homo sapiens, UniProt O95861); details: cited from earlier work
T3 sequence (O95861 1-308): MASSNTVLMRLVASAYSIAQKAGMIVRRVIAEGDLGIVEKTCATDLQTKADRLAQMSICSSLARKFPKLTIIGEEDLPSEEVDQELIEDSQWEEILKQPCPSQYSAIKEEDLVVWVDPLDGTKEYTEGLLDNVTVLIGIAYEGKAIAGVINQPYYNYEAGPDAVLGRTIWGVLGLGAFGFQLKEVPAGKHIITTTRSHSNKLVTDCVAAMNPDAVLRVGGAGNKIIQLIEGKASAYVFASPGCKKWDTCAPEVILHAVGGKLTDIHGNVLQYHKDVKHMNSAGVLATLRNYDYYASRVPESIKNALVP

[4] = 1 mM lithium final concentration in human serum; cited from earlier work
[5] = test system: organotypic SCN slices; assay: Bioluminescence recording of circadian gene expression in organotypic SCN slices (mPer1::luc / PER2::LUC); type: cell-based, mice
Procedure: (§1) Per1::luciferase and; Per2-luc transgenic mice were used. For organotypic slice culture, brains were removed from pups 5-10 days old and sectioned at 300 um with a McIlwain “Tissue Chopper.” Slices were sorted and trimmed to contain principally SCN tissue and placed onto a Millipore membrane insert (PICMORG) for culture at 37° C. in 5% CO2 as described previously (Gainer et al, 1998).
Recordings of luciferase activity from organotypic slices of SCN or peripheral tissues were made from 5-7 day old pups from PER2::LUC and, Per1::LUC mice using either photomultiplier assemblies for whole tissue emission or CCD camera for single SCN cell imaging (Hamamatsu Photonics Ltd, U.K.) as described May Wood et al 2006 Curr. Biol. Vol. 16 pp 599-605. cAMP-ELISA kit was purchased from R&D systems (Wiesbaden, Germany). NIH 3T3 cells were cultured as described (Kume et al 1999 Cell Vol 98 pp 193-205) and transfected using Genejuice (Novagen, San Diego, Calif.). […] Drugs were solubilized in medium or dimethylsulfoxide (DMSO) to make stock solutions 50-1000× the working solutions. [DMSO] was never greater than 0.4%. RNA-interference against Epac1 and Epac 2 used pre-validated sequences as instructed (Validated Stealth RNAi, Invitrogen, CA). Western Blots were performed as Reddy et al (2006 Curr. Biol. Vol 16 oo 1107-15). Behavioural rhythms, recorded by running wheel and passive infra-red movement detectors, were analysed in Clocklab (Actimetrics, Evanston Ill.). Central cannulae directed stereotaxically at the SCN and sub-cutaneous minipumps (Alzet® model 1002 pump and brain infusion kit II) for drug infusion were fitted as instructed (Durect Corp. Cupertino, Calif.).
Statistical analysis was performed using Prism GraphPad™ and Statview™. Periods were calculated over ≧3 days recoding For comparative purposes, transcriptional amplitude from PMT recordings was calculated as 100× (post-treatment emission peak-trough/pre-treatment peak-trough). In all cases error bars indicate SEM about the mean where n≧3.

[6] = test system: Slices/3T3 cells/other tissues; details: 10 mM LiCl2 (slices); 2 mM THFA (slices/3T3 cells/other tissues)
Procedure: as §1

[7] = compared with THFA; cited from earlier work
[8] = Water solubility; type: physicochemical

| water solubility [8] | solubility ([8]; water, read-out: water soluble up to) | SMILES | pEC50 [1] | pEC50 [2] | pEC50 [3] | toxicity [4] | increase in SCN period in vitro ([5]; 10 mM lithium) | circadian period ([5]; lithium treatment, organotypic slices, concentration not given) | increase in circadian period ([5]; lithium, organotypic tissue extracts) | circadian period ([5]; slices in 10 mM lithium) | appearance of slices / cells / tissues [6] | metabolic and chemical stability [7] | effect on circadian period ([5]; wild-type mPer1::luc / PER2::LUC SCN slices) |
| --- | --- | --- | --- | --- | --- | --- | --- | --- | --- | --- | --- | --- | --- |
|  |  | [Li] [Lithium] | > 2.70 | > 2.70 | > 2.70 | non-toxic | 2 to 3 h | approximately 26 hours | ~2 h | 26 h | appear perfectly healthy |  |  |
| water soluble | ≥ 125 mM | Nc1ncnc2c1ncn2C1CCCC1 [9-(cyclopentyl)-adenine, 9-(Cyclopentyl)-adenine] |  |  |  |  |  |  |  |  |  | greater metabolic and chemical stability than THFA | Reversible period lengthening; also recorded: Period was lengthened |
